For orientation: pIC50 means −log10 of the IC50, conventionally taken in molar units.

Molecules are shown by their SMILES. pIC50: −log10 of the molar value. Counter-ions that a name gives are not always drawn.

One assay addresses Pim-1 (Homo sapiens (Human), UniProt P11309). The assay can be described thus: Pim enzyme assay (HTRF, 96-well), Pim-1. The settings on record: full length recombinant Pim-1, biotinylated-BAD (S112) peptide, 10-point curve, 2 h RT, read-out: Pim-1 IC50 IP. The assay is classed as biochemical. From the text:
(§1) These cDNAs were used as templates in PCR reactions to produce full-length DNA clones of the PIMs. […] PCR products were digested with BclI and EcoRI for Pim-1 and BamHI and EcoRI for Pim-2 and ligated into a modified baculovirus transfer vector (pFastBac1) cleaved with BamHI and EcoRI. For bacterial expression, the same cleaved PCR products encoding Pim-1 or Pim-2 were ligated into a modified E. coli expression vector pET28(a) cleaved with BamHI and EcoRI. Amino-terminal hexahistidine tags followed by a thrombin cleavage site were previously added to the vectors using standard methods of molecular biology.
(§2) Recombinant baculoviruses expressing Pim-1 or Pim-2 were made using standard methods (Fastbac manual, Invitrogen, Carlsbad, Calif.). […] Cells were harvested by centrifugation and frozen at −80 C. For E. coli expression, cells carrying pET28-His6-Th-Pim-1 or pET28-His6-Th-Pim-2 were picked from a single colony and grown o/n in LB media. The o/n culture was used to inoculate a 2 liter flask with 500 mL media. This was grown o/n and used to inoculate 15-20 liters of Terrific Broth in a New Brunswick Scientific fermentor. The E. coli were grown at 37° C. to and OD600 >1.6. The temperature was dropped to 18° C. and o/n expression was induced with 0.5 mM IPTG. Cells were harvested by centrifugation and frozen at −80° C.
(§3) The slurry was centrifuged at 1,000×g for 5 min, the supernatant decanted, and the resin suspended in 40 mL of lysis wash buffer (lysis buffer at 0.75 M NaCl). This step was repeated 3× and the resin was transferred to a 2.5 cm glass column. Ten column volumes of wash buffer (0.05 M HEPES, pH 8.0, 0.1 M NaCl, 0.01 M 2-mercaptoethanol, 10%(w/v) glycerol) were applied to the resin followed by 10 column volumes of elution buffer (0.05 M HEPES, pH 8.0, 0.25 M NaCl, 0.01 M 2-mercaptoethanol, 10%(w/v) glycerol, 0.1 M imidazole). Fractions were analyzed by SDS-PAGE and those containing the protein of interest were pooled and concentrated. The concentrated protein was applied to an Amersham Superdex 75 (XK 26/60) column equilibrated in 0.025 M Tris-HCl, pH 7.5, 0.1 M NaCl, 0.01 M 2-mercaptoethanol, 10% (w/v) glycerol. […] Fractions containing the monomeric protein of interest were pooled, concentrated to ˜2 mg/mL, and stored at −80° C.
(§4) The phosphorylation of biotinylated-BAD (S112) peptide by full length recombinant Pim-1, Pim-2, or Pim-3 protein was detected with streptavidin:Allophycocyanin (APC) conjugate and a europium (Eu) labeled antibody directed against phosphorylated-BAD (S112). […] The fluorescence is directly proportional to the amount of phosphorylated BAD peptide present in the reaction. […] A reference compound was included on each assay plate in order to validate that plate; on one plate of every assay run, two additional reference compounds were included. The final buffer conditions were as follows: 60 mM Hepes, pH 7.0, 0.05% BSA, 2 mM DTT. Incubations were carried out at RT (22° C.) for 2 h for Pim-1, 1 hour and 30 min for Pim-3, and 45 min for Pim-2. The reaction was stopped by the addition of 3 mM EDTA, and fluorescence was measured by an HTRF® Rubystar microplate reader. For each plate, percent of control (POC) values were calculated for each well. Values for the IC50 IP were estimated using a standard 4-parameter logistic model.
(In TR-FRET formats the signal depends on donor and acceptor labels being close together.)

A further assay addresses Pim-2 (Homo sapiens (Human), UniProt Q9P1W9). The assay can be described thus: Pim enzyme assay (HTRF, 96-well), Pim-2. The settings on record: full length recombinant Pim-2, biotinylated-BAD (S112) peptide, 10-point curve, 45 min RT, read-out: Pim-2 IC50 IP. The format is biochemical.
Source text: as §1, §2, §3, §4

Chain of Pim-2 (Q9P1W9 whole entry): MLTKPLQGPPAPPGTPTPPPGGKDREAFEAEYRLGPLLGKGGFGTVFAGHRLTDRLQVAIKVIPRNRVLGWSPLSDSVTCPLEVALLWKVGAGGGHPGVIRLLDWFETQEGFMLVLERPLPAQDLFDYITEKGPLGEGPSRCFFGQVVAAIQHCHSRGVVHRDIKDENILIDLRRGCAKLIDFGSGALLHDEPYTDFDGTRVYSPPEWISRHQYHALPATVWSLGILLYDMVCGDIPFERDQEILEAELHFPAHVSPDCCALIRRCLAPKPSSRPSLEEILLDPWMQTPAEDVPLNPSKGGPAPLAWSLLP
Chain of Pim-1 (P11309 whole entry): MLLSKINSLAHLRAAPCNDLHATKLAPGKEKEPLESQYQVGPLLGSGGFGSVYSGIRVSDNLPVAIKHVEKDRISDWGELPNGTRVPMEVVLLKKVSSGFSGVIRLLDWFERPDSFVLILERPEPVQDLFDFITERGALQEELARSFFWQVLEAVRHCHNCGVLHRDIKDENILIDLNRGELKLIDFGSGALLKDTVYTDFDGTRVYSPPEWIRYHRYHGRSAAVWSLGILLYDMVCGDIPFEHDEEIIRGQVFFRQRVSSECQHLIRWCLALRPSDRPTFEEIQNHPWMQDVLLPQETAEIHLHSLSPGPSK

Turning to `O=C1NCCc2[nH]c(-c3cccc4ccc(Oc5ccc(Cl)cc5)nc34)cc21` [Example 18, 2-(2-(4-chlorophenoxy)quinolin-8-yl)-6,7-dihydro-1H-pyrrolo[3,2-c]pyridin-4(5H)-one], the pIC50 on Pim-1 was 7.81; at Pim-2 it was 7.35.

In the case of `O=c1[nH]cnc2[nH]c(-c3cccc4ccc(Cl)nc34)cc12` [Example 19, 6-(2-chloroquinolin-8-yl)-3H-pyrrolo[2,3-d]pyrimidin-4(7H)-one trifluoroacetate], the pIC50 at Pim-1 was 6.88; at Pim-2, 6.04.

As for `O=C1NCCc2[nH]c(-c3cccc4ccc(OCc5ccccc5)nc34)cc21` [Example 20, 2-(2-(benzyloxy)quinolin-8-yl)-6,7-dihydro-1H-pyrrolo[3,2-c]pyridin-4(5H)-one], the figures for the negative-log IC50 (pIC50) on Pim-1 and on Pim-2 were 7.41 and 7.01, respectively.

For the molecule `O=C1NCCc2[nH]c(-c3cccc4ccc(Nc5cccc(Cl)c5)nc34)cc21` [Example 40, 2-(2-((3-chlorophenyl)amino)-8-quinolinyl)-1,5,6,7-tetrahydro-4H-pyrrolo[3,2-c]pyridin-4-one], the pIC50 on Pim-1 was 8.74; at Pim-2 it was 7.84.

Turning to `O=C1NCCc2[nH]c(-c3cccc4ccc(Oc5cccc(Cl)c5)nc34)cc21` [Example 41, 2-(2-(3-chlorophenoxy)-8-quinolinyl)-1,5,6,7-tetrahydro-4H-pyrrolo[3,2-c]pyridin-4-one], the negative-log IC50 (pIC50) at Pim-1 was 7.87; on Pim-2, 7.17.

Consider `Cc1cccc(Oc2ccc3cccc(-c4cc5c([nH]4)CCNC5=O)c3n2)c1` [Example 43, 2-(2-(3-methylphenoxy)-8-quinolinyl)-1,5,6,7-tetrahydro-4H-pyrrolo[3,2-c]pyridin-4-one], for which the negative-log IC50 (pIC50) at Pim-1 is 7.75; on Pim-2 it was 7.32.

As to `COC(=O)N(c1ccccc1)c1ccc2cccc(-c3cc4c([nH]3)CCNC4=O)c2n1` [Example 46, Methyl (8-(4-oxo-4,5,6,7-tetrahydro-1H-pyrrolo[3,2-c]pyridin-2-yl)-2-quinolinyl)phenylcarbamate], the pIC50 was 7.24 on Pim-1 and 6.90 on Pim-2.

Take `O=C1NCCc2[nH]c(-c3cccc4ccc(OC5CCNCC5)nc34)cc21` [Example 81, 2-(2-(piperidin-4-yloxy)quinolin-8-yl)-6,7-dihydro-1H-pyrrolo[3,2-c]pyridin-4(5H)-one]: the results for the pIC50 at Pim-1 and at Pim-2 were 8.22 and 7.02, respectively.

For the molecule `CS(=O)(=O)c1ccc(-c2ccc3cccc(-c4cc5c([nH]4)CCNC5=O)c3n2)c(F)c1` [Example 86, 2-(2-(2-fluoro-4-(methylsulfonyl)phenyl)quinolin-8-yl)-6,7-dihydro-1H-pyrrolo[3,2-c]pyridin-4(5H)-one], the negative-log IC50 (pIC50) on Pim-1 is 7.31; at Pim-2 it was 6.84.

Regarding `COc1ccc(Cl)cc1-c1ccc2cccc(-c3cc4c([nH]3)CCNC4=O)c2n1` [Example 88, 2-(2-(5-chloro-2-methoxyphenyl)quinolin-8-yl)-6,7-dihydro-1H-pyrrolo[3,2-c]pyridin-4(5H)-one], the pIC50 was 7.38 on Pim-1 and 6.78 on Pim-2.

On to `O=C1NCCc2[nH]c(-c3cccc4ccc(O[C@@H]5CCCNC5)nc34)cc21` [Example 89, (R)-2-(2-(piperidin-3-yloxy)quinolin-8-yl)-6,7-dihydro-1H-pyrrolo[3,2-c]pyridin-4(5H)-one], for which the negative-log IC50 (pIC50) at Pim-1 is 7.33; at Pim-2 it was 6.47.

As to `Nc1ccc(-c2ccc3cccc(-c4cc5c([nH]4)CCNC5=O)c3n2)c(F)c1` [Example 91, 2-(2-(4-amino-2-fluorophenyl)quinolin-8-yl)-6,7-dihydro-1H-pyrrolo[3,2-c]pyridin-4(5H)-one], the pIC50 at Pim-1 was 7.97; at Pim-2 it was 7.34.

Take `Cc1cccc(C)c1Oc1ccc2cccc(-c3cc4c([nH]3)CCNC4=O)c2n1` [Example 101]: the results for the pIC50 on Pim-1 and at Pim-2 were 7.70 and 7.09, respectively.

For `C[C@@H](Nc1ccc2cccc(-c3cc4c([nH]3)CCNC4=O)c2n1)c1ccccc1` [Example 111, (R)-2-(2-((1-phenylethyl)amino)quinolin-8-yl)-6,7-dihydro-1H-pyrrolo[3,2-c]pyridin-4(5H)-one], the figures for the pIC50 on Pim-1 and at Pim-2 were 7.72 and 6.74, respectively.

For the molecule `C[C@H](Nc1ccc2cccc(-c3cc4c([nH]3)CCNC4=O)c2n1)c1ccccc1` [Example 112, (S)-2-(2-((1-phenylethyl)amino)quinolin-8-yl)-6,7-dihydro-1H-pyrrolo[3,2-c]pyridin-4(5H)-one], the negative-log IC50 (pIC50) was 7.54 at Pim-1 and 6.74 at Pim-2.

As to `C=C(c1ccccc1)c1ccc2cccc(-c3cc4c([nH]3)CCNC4=O)c2n1` [Example 113, 2-(2-(1-phenylvinyl)quinolin-8-yl)-6,7-dihydro-1H-pyrrolo[3,2-c]pyridin-4(5H)-one], the pIC50 is 8.33 on Pim-1 and 8.09 on Pim-2.

In the case of `O=C1NCCc2[nH]c(-c3cccc4ccc(N[C@@H]5CCCNC5)nc34)cc21` [Example 124, (R)-2-(2-(piperidin-3-ylamino)quinolin-8-yl)-6,7-dihydro-1H-pyrrolo[3,2-c]pyridin-4(5H)-one], the negative-log IC50 (pIC50) is 8.19 on Pim-1 and 6.85 on Pim-2.

Take `Cc1nc2cccc(-c3cc4c([nH]3)CCNC4=O)c2nc1N[C@H](C)C(N)=O` [Example 128, (R)-2-((3-methyl-8-(4-oxo-4,5,6,7-tetrahydro-1H-pyrrolo[3,2-c]pyridin-2-yl)quinoxalin-2-yl)amino)propanamide]: the pIC50 is 6.69 on Pim-1 and 6.65 at Pim-2.

In the case of `Cc1nc2cccc(-c3cc4c([nH]3)CCNC4=O)c2nc1N[C@@H](C)C(N)=O` [Example 129, (S)-2-((3-methyl-8-(4-oxo-4,5,6,7-tetrahydro-1H-pyrrolo[3,2-c]pyridin-2-yl)quinoxalin-2-yl)amino)propanamide], the results for the negative logarithm of the IC50 (pIC50) on Pim-1 and on Pim-2 were 7.00 and 6.64, respectively.

With `Cc1nc2cccc(-c3cc4c([nH]3)CCNC4=O)c2nc1N1CCOCC1` [Example 133, 2-(2-methyl-3-morpholinoquinoxalin-5-yl)-6,7-dihydro-1H-pyrrolo[3,2-c]pyridin-4(5H)-one], the pIC50 is 7.03 on Pim-1 and 7.00 at Pim-2.

For the molecule `COC(=O)[C@H](C)Nc1nc2c(-c3cc4c([nH]3)CCNC4=O)cccc2nc1C` [Example 136, (S)-methyl 2-((3-methyl-8-(4-oxo-4,5,6,7-tetrahydro-1H-pyrrolo[3,2-c]pyridin-2-yl)quinoxalin-2-yl)amino)propanoate], the pIC50 on Pim-1 was 7.31; at Pim-2, 6.81.

As for `COC(=O)[C@@H](C)Nc1nc2c(-c3cc4c([nH]3)CCNC4=O)cccc2nc1C` [Example 137, (R)-methyl 2-((3-methyl-8-(4-oxo-4,5,6,7-tetrahydro-1H-pyrrolo[3,2-c]pyridin-2-yl)quinoxalin-2-yl)amino)propanoate], the negative-log IC50 (pIC50) at Pim-1 is 7.01; on Pim-2, 7.13.

As for `Cc1nc2cccc(-c3cc4c([nH]3)CCNC4=O)c2nc1N1CCCC1` [Example 138, 2-(2-methyl-3-(pyrrolidin-1-yl)quinoxalin-5-yl)-6,7-dihydro-1H-pyrrolo[3,2-c]pyridin-4(5H)-one], the values for the pIC50 on Pim-1 and on Pim-2 were 7.46 and 7.52, respectively.

Take `O=C1NCCn2cc(-c3cccc4ccc(C(=O)N5CCOCC5)nc34)cc21` [Example 167, 7-(2-(morpholine-4-carbonyl)quinolin-8-yl)-3,4-dihydropyrrolo[1,2-a]pyrazin-1(2H)-one]: the pIC50 was 6.17 at Pim-1 and 6.18 at Pim-2.
